Legend:
[1] = Inhibition of advanced glycation end products formation after 14 days; assay type: physicochemical
[2] = target: Aldo-keto reductase family 1 member B1 (Rattus norvegicus, UniProt P07943); test: Inhibition of rat lens aldose reductase

SMILES	IC50 [1] [µM]	IC50 [2] [µM]
O=C(O)[C@H]1O[C@@H](Oc2cc(O)c3c(=O)cc(-c4ccc(O)cc4)oc3c2)[C@H](O)[C@@H](O)[C@@H]1O	107	1.28
COC(=O)[C@H]1O[C@@H](Oc2cc(O)c3c(=O)cc(-c4ccc(O)cc4)oc3c2)[C@H](O)[C@@H](O)[C@@H]1O		9.02
COC(=O)C[C@]1(O)C(=O)c2c(O)cc(O)cc2O[C@]1(OC)c1ccc(O)c(O)c1 (relative stereo) [ERIGEROFLAVANONE]		46.9
O=c1cc(-c2ccc(O)cc2)oc2cc(O)cc(O)c12 [APIGENIN]	89.9	6.67
O=c1c(O[C@@H]2O[C@H](CO)[C@@H](O)[C@H](O)[C@H]2O)c(-c2ccc(O)cc2)oc2cc(O)cc(O)c12 [ASTRAGALIN]	179	
O=c1c(O)c(-c2ccc(O)cc2)oc2cc(O)cc(O)c12 [KAEMPFEROL]		1.33
N=C(N)NN [PIMAGEDINE]	961	
C[C@@H]1O[C@@H](Oc2c(-c3ccc(O)c(O)c3)oc3cc(O)cc(O)c3c2=O)[C@H](O)[C@H](O)[C@H]1O [QUERCITRIN]		0.16

Source: ChEMBL document CHEMBL1149847, “Erigeroflavanone, a flavanone derivative from the flowers of Erigeron annuus with protein glycation and aldose reductase inhibitory activity” (J Nat Prod, 2008)
